Data published in PubChem BioAssay (NCI).
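Compound exposure: 48 hours, 5 concentrations, 96-well plates. Here, GI50 denotes the concentration required for 50% inhibition of growth. TGI: concentration producing complete growth inhibition.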

Experiments:
Experiment in all cases: NCI anticancer screen, dose series, 48 h
BT-549 breast = tested on: BT-549 breast
OVCAR-3 ovarian = tested on: OVCAR-3 ovarian
SF-268 CNS = tested on: SF-268 CNS
MDA-MB-435 = tested on: MDA-MB-435
HCC-2998 colon = tested on: HCC-2998 colon
SK-OV-3 ovarian = tested on: SK-OV-3 ovarian
SK-MEL-5 melanoma = tested on: SK-MEL-5 melanoma
SW-620 colon = tested on: SW-620 colon
IGROV1 ovarian = tested on: IGROV1 ovarian
TK-10 renal = tested on: TK-10 renal

| Structure (SMILES) | GI50 (BT-549 breast) | TGI (BT-549 breast) | GI50 (OVCAR-3 ovarian) | TGI (OVCAR-3 ovarian) | GI50 (SF-268 CNS) | TGI (SF-268 CNS) | GI50 (MDA-MB-435) | TGI (MDA-MB-435) | GI50 (HCC-2998 colon) | TGI (HCC-2998 colon) | GI50 (SK-OV-3 ovarian) | TGI (SK-OV-3 ovarian) | GI50 (SK-MEL-5 melanoma) | TGI (SK-MEL-5 melanoma) | GI50 (SW-620 colon) | TGI (SW-620 colon) | GI50 (IGROV1 ovarian) | TGI (IGROV1 ovarian) | GI50 (TK-10 renal) | TGI (TK-10 renal) |
| --- | --- | --- | --- | --- | --- | --- | --- | --- | --- | --- | --- | --- | --- | --- | --- | --- | --- | --- | --- | --- |
| CCCCNC(=O)NS(=O)(=O)c1ccc(N2N=C(c3cc(C)ccc3C)CC2c2cc(OC)c(OC)c(OC)c2)cc1 (stereo not given) | 2.73 µM | 9.28 µM | 2.07 µM | 3.99 µM | 3.16 µM | 11.7 µM | 1.75 µM | 4.24 µM | 2.32 µM | 4.84 µM | 3.53 µM | 10.1 µM | 2.54 µM | 7.01 µM | 3.26 µM | 12.8 µM | 3.19 µM | 9.96 µM | 3.44 µM | 10.7 µM |
| COc1ccc(/C=C2\CCC(CN(C)C)C2=O)cc1OC (stereo not given) |  | 14.3 µM |  | 15.8 µM |  | 27.1 µM |  | 16.1 µM |  | 14.5 µM |  | 33.7 µM |  | 23.9 µM |  | 4.44 µM |  | 33.1 µM |  | 18.7 µM |
| CC(C)c1ccc(Nc2nccc(-c3cnn4ncccc34)n2)cc1 | 0.967 µM | > 25 µM | 0.516 µM | > 6.26 µM | 0.692 µM | 4.42 µM | 0.567 µM | 1.66 µM | 0.635 µM | > 10.2 µM | 0.93 µM | 2.89 µM | 0.218 µM | 0.749 µM | 0.516 µM | 9.07 µM | 0.502 µM | > 19.5 µM | 0.59 µM | 3.17 µM |
| Nc1ccc(-c2ccc(N)cc2I)c(I)c1 | 13.8 µM | 36.1 µM | 16.6 µM | 35.3 µM | 20 µM | > 100 µM | 3.72 µM | 16.2 µM | 19.1 µM | 42.2 µM | 17 µM | 44.4 µM | 13.9 µM | 27.2 µM | 19.4 µM | 81.7 µM | 13.9 µM | 56.1 µM | 22.8 µM | 80.7 µM |
| N=C(N)c1ccc(COc2ccccc2OCc2ccc(C(=N)N)cc2)cc1 | 34.8 µM | 76.7 µM | 16.4 µM | 53.5 µM | 31.8 µM | 86 µM | 30.2 µM | > 100 µM | 86.8 µM | > 100 µM | > 100 µM | > 100 µM | 17.1 µM | 44.5 µM | 43.5 µM | > 100 µM | 61.6 µM | > 100 µM | 34.3 µM | > 100 µM |
| CSc1ccccc1C#Cc1ccccc1C#CCCCCO | 13.3 µM | 26.6 µM | 14.7 µM | 28.7 µM | 13.7 µM | 28.4 µM | 3.9 µM | 15.2 µM | 10 µM | 22.9 µM | 15.8 µM | 30.1 µM | 14 µM | 27.6 µM | 11 µM | 26.2 µM | 14 µM | 27.5 µM | 13.7 µM | 30.4 µM |
